Test results from patent publication US20260176320A1, “MODULATORS OF G-PROTEIN COUPLED RECEPTORS” (priority 2018, published 2026).
Read-outs that look alike come from different tables or passages of the source. Numbered stars: 1 amine (or outer) side, 2 acyl side, 3 side chain; on linkers, the order of the positions; unused ones are H or OH. Square brackets hold non-standard residues; d marks the D form. Side chains are listed from the residue outwards. Peptide text beside a SMILES is read from it. * marks the point of attachment. γGlu = O=C(O)[C@H](CCC(=O)[*:2])N[*:1]; X2 = O=C(CSCC(=O)*)NCCN1C(=O)CSC1=O; Palmitoyl = CCCCCCCCCCCCCCCC(=O)*; Aib = CC(C)(N)C(=O)O

Legend:
[1] = target: T1, GIP-R (Homo sapiens, UniProt P48546); experiment: HitHunter cAMP assay (GIP-R); type: cell-based; settings: for Emax: read-out: (Emax) GIP-R
T1 sequence (P48546 22-466): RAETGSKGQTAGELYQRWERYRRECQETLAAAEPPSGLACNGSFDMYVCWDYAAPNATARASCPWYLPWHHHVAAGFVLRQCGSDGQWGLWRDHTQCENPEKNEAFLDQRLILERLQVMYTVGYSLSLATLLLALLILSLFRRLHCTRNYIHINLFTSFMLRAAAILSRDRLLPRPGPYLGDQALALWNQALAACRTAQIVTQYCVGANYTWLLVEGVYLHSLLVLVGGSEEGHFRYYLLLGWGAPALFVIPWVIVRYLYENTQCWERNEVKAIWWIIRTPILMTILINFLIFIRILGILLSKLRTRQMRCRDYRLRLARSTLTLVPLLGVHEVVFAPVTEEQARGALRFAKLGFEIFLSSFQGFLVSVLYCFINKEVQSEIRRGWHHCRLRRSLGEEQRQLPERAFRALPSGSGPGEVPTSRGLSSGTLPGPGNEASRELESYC
Procedure, shortened: (§1)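 Suspension cells expressing each receptor (10,000 per well) in HBSS with 10 mM HEPES, 625 μM IBMX and 0.2% BSA were treated with a 22-point 2-fold agonist series in duplicate for 30 minutes at room temperature. cAMP was detected by antibody immunocompetition with luminescence read after overnight incubation.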

[2] = target: GLP-1R (Homo sapiens, UniProt P43220); experiment: HitHunter cAMP assay (GLP-1R); type: cell-based; settings: for Emax: read-out: (Emax) GLP-1R
Chain of GLP-1R (P43220 24-463): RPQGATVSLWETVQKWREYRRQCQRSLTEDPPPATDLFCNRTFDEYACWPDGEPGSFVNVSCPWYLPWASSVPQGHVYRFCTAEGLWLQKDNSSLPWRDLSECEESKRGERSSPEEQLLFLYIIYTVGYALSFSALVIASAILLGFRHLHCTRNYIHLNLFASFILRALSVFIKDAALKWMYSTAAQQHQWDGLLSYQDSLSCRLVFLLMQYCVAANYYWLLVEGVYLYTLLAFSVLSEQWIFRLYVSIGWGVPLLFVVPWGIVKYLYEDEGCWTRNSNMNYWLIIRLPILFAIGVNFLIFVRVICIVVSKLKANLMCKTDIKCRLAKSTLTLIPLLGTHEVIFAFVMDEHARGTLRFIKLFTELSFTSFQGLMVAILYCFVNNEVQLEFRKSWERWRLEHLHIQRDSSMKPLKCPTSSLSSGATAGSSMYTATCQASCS
Procedure, shortened: as §1

[3] = Table 3, cAMP, read-out: EC50 GIP-R/nM
[4] = Table 3A, cAMP, read-out: EC50 GIP-R/nM
[5] = Table 3, cAMP, read-out: EC50 GLP-1R/nM
[6] = Table 3A, cAMP, read-out: EC50 GLP-1R/nM
[7] = read-out: EC50 GIP-R/nM, Table 3A, cAMP

Row | SMILES | Emax ([1]; Table 3, cAMP) | EC50 [1, 3] | Emax ([1]; Table 3A, cAMP) | EC50 [1, 4] | Emax ([2]; Table 3, cAMP) | EC50 [2, 5] | Emax ([2]; Table 3A, cAMP) | EC50 [2, 6] | EC50 ([1]; EC50 GIP-R/nM, Table 3, cAMP) | Emax at 1 µM ([1]; read-out: (Emax) GIP-R at 1 μM) | EC50 [1, 7] | EC50 [2] | Emax [2] | EC50 ([2]; read-out: EC50 GLP-1R/nM, Table 3A, cAMP) | Emax at 1 µM ([1]; read-out: (Emax) GIP-R at 1 μM, Table 3, cAMP, at 1 μM) | EC50 ([2]; EC50 GLP-1R/nM, Table 3, cAMP) | EC50 ([2]; EC50 GLP-1R/nM, Table 3A, cAMP)
1 | CCCCCCCCCCCCCCCC(=O)N[C@@H](CCC(=O)NCCCC[C@H](NC(=O)[C@H](CO)NC(=O)[C@@H]1CCCN1C(=O)[C@@H]1CCCN1C(=O)[C@@H]1CCCN1C(=O)[C@H](C)NC(=O)CNC(=O)[C@H](CO)NC(=O)[C@H](CO)NC(=O)[C@@H]1CCCN1C(=O)CNC(=O)[C@H](CCCNC(=N)N)NC(=O)[C@H](CCC(N)=O)NC(=O)[C@H](C)NC(=O)[C@H](CC(C)C)NC(=O)[C@H](CC(C)C)NC(=O)[C@H](Cc1c[nH]c2ccccc12)NC(=O)[C@H](CC(N)=O)NC(=O)[C@@H](NC(=O)[C@H](Cc1ccccc1)NC(=O)[C@H](CC(=O)O)NC(=O)[C@H](CCC(N)=O)NC(=O)[C@H](CCC(N)=O)NC(=O)[C@H](CCCNC(=N)N)NC(=O)[C@@H](NC(=O)[C@H](CCCCN)NC(=O)[C@H](CC(=O)O)NC(=O)[C@H](CCSC)NC(=O)[C@H](C)NC(=O)[C@@H](NC(=O)[C@H](CO)NC(=O)[C@H](Cc1ccc(O)cc1)NC(=O)[C@H](CC(=O)O)NC(=O)[C@H](CO)NC(=O)[C@@H](NC(=O)[C@H](Cc1ccccc1)NC(=O)[C@@H](NC(=O)CNC(=O)[C@H](CCC(=O)O)NC(=O)CSCC(=O)NCCN1C(=O)CSC1=O)[C@@H](C)O)[C@@H](C)CC)[C@@H](C)CC)[C@@H](C)CC)C(C)C)C(N)=O)C(=O)O [Compound 76] (X2-EGTFISDYSIAMDKIRQQDFVNWLLAQRGPSSGAPPPSK([γGlu-Palmitoyl])-NH2) | 89% | 0.1 to 1 nM | 89% | 0.1 to 1 nM | 95% | 1 to 10 nM | 95% | 1 to 10 nM |  |  |  |  |  |  |  |  | 
2 | CC[C@H](C)[C@H](NC(=O)[C@H](CO)NC(=O)[C@H](Cc1ccc(O)cc1)NC(=O)[C@H](CC(=O)O)NC(=O)[C@H](CO)NC(=O)[C@@H](NC(=O)[C@H](Cc1ccccc1)NC(=O)[C@@H](NC(=O)CNC(=O)[C@H](CCC(=O)O)NC(=O)CSCC(=O)NCCN(C)C(=O)c1ccccc1)[C@@H](C)O)[C@@H](C)O)C(=O)N[C@@H](Cc1ccc(O)cc1)C(=O)N[C@@H](CC(C)C)C(=O)N[C@@H](CC(=O)O)C(=O)N[C@@H](CCCCN)C(=O)N[C@@H](CCC(N)=O)C(=O)N[C@@H](C)C(=O)N[C@@H](C)C(=O)NC(C)(C)C(=O)N[C@@H](CCC(=O)O)C(=O)N[C@@H](Cc1ccccc1)C(=O)N[C@H](C(=O)N[C@@H](CC(N)=O)C(=O)N[C@@H](Cc1c[nH]c2ccccc12)C(=O)N[C@@H](CC(C)C)C(=O)N[C@@H](CC(C)C)C(=O)N[C@@H](C)C(=O)NCC(=O)NCC(=O)N1CCC[C@H]1C(=O)N[C@@H](CO)C(=O)N[C@@H](CO)C(=O)NCC(=O)N[C@@H](C)C(=O)N1CCC[C@H]1C(=O)N1CCC[C@H]1C(=O)N1CCC[C@H]1C(=O)N[C@@H](CO)C(=O)N[C@@H](CCCCN)C(N)=O)C(C)C [Compound 169] |  |  |  |  |  |  |  |  | > 1000 nM | 6 to 8% | > 1000 nM | 1 to 10 nM | 96% | 1 to 10 nM |  |  | 
3 | CCCCCCCCCCCCCCCC(=O)N[C@@H](CCC(=O)NCCCC[C@H](NC(=O)[C@H](CO)NC(=O)[C@@H]1CCCN1C(=O)[C@@H]1CCCN1C(=O)[C@@H]1CCCN1C(=O)[C@H](C)NC(=O)CNC(=O)[C@H](CO)NC(=O)[C@H](CO)NC(=O)[C@@H]1CCCN1C(=O)CNC(=O)CNC(=O)[C@H](C)NC(=O)[C@H](CC(C)C)NC(=O)[C@H](CC(C)C)NC(=O)[C@H](Cc1c[nH]c2ccccc12)NC(=O)[C@H](CC(N)=O)NC(=O)[C@@H](NC(=O)[C@H](Cc1ccccc1)NC(=O)[C@H](CCC(=O)O)NC(=O)C(C)(C)NC(=O)[C@H](C)NC(=O)[C@H](C)NC(=O)[C@H](CCC(N)=O)NC(=O)[C@H](CCCCN)NC(=O)[C@H](CC(=O)O)NC(=O)[C@H](CC(C)C)NC(=O)[C@H](Cc1ccc(O)cc1)NC(=O)[C@@H](NC(=O)[C@H](CO)NC(=O)[C@H](Cc1ccc(O)cc1)NC(=O)[C@H](CC(=O)O)NC(=O)[C@H](CO)NC(=O)[C@@H](NC(=O)[C@H](Cc1ccccc1)NC(=O)[C@@H](NC(=O)CNC(=O)[C@H](CCC(=O)O)NC(=O)CSCC(=O)NCCN1NCCC1=O)[C@@H](C)O)[C@@H](C)O)[C@@H](C)CC)C(C)C)C(N)=O)C(=O)O [Compound 58] | 26% | 1 to 10 nM | 26% | 10 to 100 nM | 108% | 0.1 to 1 nM | 108% | 0.1 to 1 nM |  |  |  |  |  |  |  |  | 
4 | CCCCCCCCCCCCCCCC(=O)N[C@@H](CCC(=O)NCCCC[C@H](NC(=O)[C@H](CC(=O)O)NC(=O)[C@H](CO)NC(=O)[C@@H](NC(=O)[C@H](Cc1ccccc1)NC(=O)[C@@H](NC(=O)CNC(=O)[C@H](CCC(=O)O)NC(=O)CSCC(=O)NCCN1C(=O)CSC1=O)[C@@H](C)O)[C@@H](C)O)C(=O)N[C@@H](CO)C(=O)N[C@H](C(=O)N[C@@H](Cc1ccc(O)cc1)C(=O)N[C@@H](CC(C)C)C(=O)N[C@@H](CC(=O)O)C(=O)N[C@@H](CCCCN)C(=O)N[C@@H](CCC(N)=O)C(=O)N[C@@H](C)C(=O)N[C@@H](C)C(=O)NC(C)(C)C(=O)N[C@@H](CCC(=O)O)C(=O)N[C@@H](Cc1ccccc1)C(=O)N[C@H](C(=O)N[C@@H](CC(N)=O)C(=O)N[C@@H](Cc1c[nH]c2ccccc12)C(=O)N[C@@H](CC(C)C)C(=O)N[C@@H](CC(C)C)C(=O)N[C@@H](C)C(=O)NCC(=O)NCC(=O)N1CCC[C@H]1C(=O)N[C@@H](CO)C(=O)N[C@@H](CO)C(=O)NCC(=O)N[C@@H](C)C(=O)N1CCC[C@H]1C(=O)N1CCC[C@H]1C(=O)N1CCC[C@H]1C(=O)N[C@@H](CO)C(=O)N[C@@H](CCCCN)C(N)=O)C(C)C)[C@@H](C)CC)C(=O)O [Compound 201] (X2-EGTFTSDK([γGlu-Palmitoyl])SIYLDKQAA[Aib]EFVNWLLAGGPSSGAPPPSK-NH2) |  |  | 105% | 1 to 10 nM |  |  | 99% | 1 to 10 nM |  |  |  |  |  |  |  |  | 
5 | CC[C@H](C)[C@H](NC(=O)[C@H](CO)NC(=O)[C@H](Cc1ccc(O)cc1)NC(=O)[C@H](CC(=O)O)NC(=O)[C@H](CO)NC(=O)[C@@H](NC(=O)[C@H](Cc1ccccc1)NC(=O)[C@@H](NC(=O)CNC(=O)[C@H](CCC(=O)O)NC(=O)C1(C(=O)NCCN2C(=O)CSC2=O)Cc2ccccc2C1)[C@@H](C)O)[C@@H](C)O)C(=O)N[C@@H](Cc1ccc(O)cc1)C(=O)N[C@@H](CC(C)C)C(=O)N[C@@H](CC(=O)O)C(=O)N[C@@H](CCCCN)C(=O)N[C@@H](CCC(N)=O)C(=O)N[C@@H](C)C(=O)N[C@@H](C)C(=O)NC(C)(C)C(=O)N[C@@H](CCC(=O)O)C(=O)N[C@@H](Cc1ccccc1)C(=O)N[C@H](C(=O)N[C@@H](CC(N)=O)C(=O)N[C@@H](Cc1c[nH]c2ccccc12)C(=O)N[C@@H](CC(C)C)C(=O)N[C@@H](CC(C)C)C(=O)N[C@@H](C)C(=O)NCC(=O)NCC(=O)N1CCC[C@H]1C(=O)N[C@@H](CO)C(=O)N[C@@H](CO)C(=O)NCC(=O)N[C@@H](C)C(=O)N1CCC[C@H]1C(=O)N1CCC[C@H]1C(=O)N1CCC[C@H]1C(=O)N[C@@H](CO)C(=O)N[C@@H](CCCCN)C(N)=O)C(C)C [Compound 124] |  |  |  |  | 73% |  | 73% |  | > 1000 nM |  | > 1000 nM |  |  |  | 10% | 10 to 100 nM | 10 to 100 nM
